Experimental data published in US4413007A, “Pesticidal symmetrical N-substituted bis-carbamoyloximino disulfide compounds” (priority 1978, dated 1983).

How the values were obtained:
Format in all cases: in vivo
Parameters in all cases: key: A: excellent control; B: partial control; C: no control
[1] = system: house flies (Musca domestica, L.); experiment: Fly Bait Test; settings: 500 ppm in sugar solution, twenty four hours
Experimental: (§1) Suspensions of the test compounds were prepared by dissolving one gram of compound in 50 milliliters of acetone in which had been dissolved 0.1 gram (10 percent of the weight of compound) of an alkylphenoxy polyethoxyethanol surfactant, as an emulsifying or dispersing agent. The resulting solution was mixed into 150 milliliters of water to give roughly 200 milliliters of a suspension containing the compound in finely divided form. The thus-prepared stock suspension contained 0.5 percent by weight of compound. The test concentrations in parts per million by weight employed in the tests described hereinbelow were obtained by appropriate dilutions of the stock suspension with water. The test procedures were as follows:
Four to six day old adult house flies (Musca domestica, L.) reared according to the specifications of the Chemical Specialities Manufacturing Association (Blue Book, McNair-Dorland Co., N.Y. 1954; pages 243-244, 261) under controlled conditions of 80±5° F. and 50±5 percent relative humidity, were the test insects. The flies were immobilized by anesthetizing with carbon dioxide and twenty five immobilized individuals,males and females, were transferred to a cage consisting of a standard food strainer about five inches in diameter which was inverted over a wrapping-paper-covered surface. The test compounds were formulated by diluting the stock suspension with a 10 percent (by weight) sugar solution to give a suspension containing 500 parts of test compound per million parts of final formulation, by weight. Ten milliliters of the test formulation were added to a souffle cup containing a one-inch square of an absorbent cotton pad. This bait cup was introduced and centered on the blotting paper under the food strainer prior to admitting the anesthetized flies. The caged flies were allowed to feed on the bait for twenty four hours, at a temperature of 80±5° F. and the relative humidity of 50±5 percent.
(§2) In these tests the pesticidal activity of the compounds against aphid, mite, Southern Armyworm, Bean Beetle and house fly was rated as follows: […]

[2] = system: Mexican bean beetle (Epilachna varivestis, Muls.); experiment: Mexican Bean Beetle Leaf Spray Test; settings: 500 ppm, three days
Experimental: as §1
Fourth instar larvae of the Mexican bean beetle (Epilachna varivestis, Muls.), reared on Tendergreen bean plants at a temperature of 80±5° F. and 50±5 percent relative humidity, were the test insects.
The test compounds were formulated by diluting the stock suspension with water to give a suspension containing 500 parts of test compound per million parts of final formulation. Potted Tendergreen bean plants of standard height and age were placed on a revolving turntable and sprayed with 100-110 milliliters of test compound formulation by use of a DeVilbiss spray gun set at 10 psig air pressure. The application, which lasted 25 seconds, was sufficient to wet plants to run-off. As a control, 100-110 milliliters of a water-acetone-emulsifier solution containing no test compound were also sprayed on infested plants. When dry, the paired leaves were separated and each was placed in a 9 centimeter Petri dish lined with moistened filter paper. Five randomly selected larvae were introduced into each dish, and the dishes were closed. The closed dishes were labeled and held at a temperature of 80±5° F. for three days. Although the larvae could easily consume the leaf within 24 to 48 hours, no more food was added. Larvae which were unable to move the length of the body, even upon stimulation, were considered dead.
as §2

[3] = system: two-spotted mite (Tetranychus urticae Koch); experiment: Mite Foliage Spray Test; settings: 500 ppm, six days
Experimental: as §1
Adults and nymphal stages of the two-spotted mite (Tetranychus urticae Koch), reared on Tendergreen bean plants at 80±5 percent relative humidity, were the test organisms. Infested leaves from a stock culture were placed on the primary leaves of two bean plants six to eight inches in height, growing in a two-and-a-half inch clay pot. 150-200 Mites, a sufficient number for testing, transferred from the excised leaves to the fresh plants in a period of twenty four hours. Following the twenty four hour transfer period, the excised leaves were removed from the infested plants. The test compounds were formulated by diluting the stock suspension with water to give a suspension containing 500 parts of test compound per million parts of final formulation. The potted plants (one pot per compound) were placed on a revolving turntable and sprayed with 100-110 milliliters of test compound formulation by use of a DeVilbiss spray gun set at 40 psig. air pressure. This application, which lasted 25 seconds, was sufficient to wet the plants to run-off. As a control, 100-110 milliliters of a water solution containing acetone and emulsifier in the same concentrations as the test compound formulation, but containing no test compound, were also sprayed on infested plants. The sprayed plants were held at 80±5 percent relative humidity for six days, after which a mortality count of motile forms was made. Microscopic examination for motile forms was made on the leaves of the test plants. Any individual which was capable of locomotion upon prodding was considered living.
as §2

[4] = system: southern armyworm (Prodenia eridania, (Cram.)); experiment: Southern Armyworm Leaf Spray Test; settings: 500 ppm, three days
Experimental: as §1
Larvae of the southern armyworm (Prodenia eridania, (Cram.)), reared on Tendergreen bean plants at a temperature of 80±5° F. and a relative humidity of 50±5 percent, constituted the test insects.
The test compounds were formulated by diluting the stock suspension with water to give a suspension containing 500 parts of test compound per million parts of final formulation. Potted Tendergreen bean plants of standard height and age were placed on a revolving turntable and sprayed with 100-110 milliliters of test compound formulation by use of a DeVilbiss spray gun set at 10 psig air pressure. This application, which tested 25 seconds, was sufficient to wet plants to run-off. As a control, 100-110 milliliters of a water-acetone-emulsifier solution containing no test compound were also sprayed on infested plants. When dry, the paired leaves were separated and each one was placed in a 9 centimeter Petri dish lined with moistened filter paper. Five randomly selected larvae were introduced into each dish and the dishes were closed. The closed dishes were labeled and held at 80°-85° F. for three days. Although the larvae could easily consume the whole leaf within twenty-four hours, no more food was added. Larvae which were unable to move the length of the body, even upon stimulation by prodding, were considered dead. Percent mortality was recorded for various concentration levels.
as §2

CN(SSN(C)C(=O)ON=C1CSCCS1)C(=O)ON=C1CSCCS1 [N,N'-Bis-[1,4-Dithiane-2-O-(N-methylcarbamoyl)oximino]disulfide]
A: House-Fly control rating [1] | Mexican Bean Beetle control rating [2] | 2-Spotted Mite control rating [3] | Southern Armyworm control rating [4]

CC(=NOC(=O)N(C)SSN(C)C(=O)ON=C(C)SCCC#N)SCCC#N [N,N'-Bis-[1-(2-Cyanoethylthio)acetaldehyde O-(N-methylcarbamoyl)oxime]disulfide]
A: House-Fly control rating [1] | Mexican Bean Beetle control rating [2] | 2-Spotted Mite control rating [3] | Southern Armyworm control rating [4]

CSC(C)=NOC(=O)N(C)SSN(C)C(=O)ON=C(C)SC [N,N'-Bis-[1-Methylthioacetaldehyde O-(N-methylcarbamoyl)oxime]disulfide]
C: 2-Spotted Mite control rating [3]
A: House-Fly control rating [1] | Mexican Bean Beetle control rating [2] | Southern Armyworm control rating [4]
